Source: US20240069010A1, “TISSUE ORGANOID BIOPRINTING AND HIGH-THROUGHPUT SCREENING METHODOLOGY” (priority 2020, published 2024)

How the values were obtained:
[1] = system: MCF-7 organoids; assay: HSLCI mass tracking of bioprinted organoids in drug screening; assay type: cell-based; conditions: for Mean mass of MCF-7 organoids, Mean mass ± SD: 48 hours of treatment; for Organoid Behavior (%) Stable / Organoid Behavior (%) Gained Mass / Organoid Behavior (%) Lost Mass: MCF-7 organoids; for Organoid Behavior (%) Stable: mass change <10%; for Organoid Behavior (%) Gained Mass: mass increase >10%; for Organoid Behavior (%) Lost Mass: mass loss >10%
From the text: (§1) Cells were bioprinted using a CELLINK BioX with a Temperature-Controlled Printhead. Gcode files were written to print the desired single-layer geometry. We wrote standardized blocks of Gcode encode the print path for the repeated geometries. MATLAB (MathWorks, Inc.) was used to integrate these standardized blocks into full Gcode files with the defined coordinates for each well. We used 8-well plates when printing the larger constructs as the depth of the well in a standard 24-well plate prohibited the use of 0.5″ length needles. Large rings were necessary to deposit a sufficient number of cells for RNA-Seq and IHC. Four rings with a diameter of 14.5 mm were printed for RNA sequencing (approximately 200,000 cells total), while four sets of concentric 14.5 mm, 12.5 mm, and 10.5 mm diameter rings were used for IHC analysis (approximately 500,000 cells total). We printed mini-squares with side length 3.9 mm for drug screening and HSLCI imaging. The mini-squares were inscribed within the circular well with sides parallel to the sides of the well plate. The open center of the constructs facilitates automatic manipulation with fluid handling equipment while the sides of the square are positioned to maximize the number of organoids imaged by HSLCI. The bioprinting process utilized the same material deposited for manually seeded organoids. A single cell suspension, aggregates or clusters in a 3:4 mixture of MammoCult™ and Matrigel® was prepared on ice. After vortexing briefly to homogenize, the mixture was transferred into a 3 mL syringe by removing the plunger and capping the opposite end. Once the plunger was replaced, the syringe was inverted, and bubbles were forced out of the tip. The material was then transferred to a room temperature 3 mL bioprinter cartridge (CELLINK) by connecting the syringe and cartridge with a double-sided female Luer lock adapter (CELLINK). Any air bubbles in the syringe were removed and the loaded cartridge was incubated in a rotating incubator (Enviro-Genie, Scientific Industries) for 30 minutes at the print temperature.
(§2) During the incubation period, the printer was sterilized with the built-in UV irradiation function and the printhead was set to the print temperature. […] The well masks were autoclaved prior to use. The masks were inserted into the well plate and pressed in contact with the glass surface. Rubber bands were used to hold the masks in place and ensure conformal contact was maintained throughout the plasma treatment. The well plates were treated with oxygen plasma in a PE-25 (Plasma Etch) for 30-90 seconds, 15 minutes prior to bioprinting. After plasma treatment, the well plate was placed in the bioprinter and Automatic Bed Levelling (ABL) was performed.
(§3) Once the incubation period ended, we attached a 0.5″ 25-gauge needle and loaded the cartridge into the pre-cooled printhead. We primed the needle by extruding a small volume of material at 15 kPa prior to calibrating the printer. Just before printing, we cleared the needle of the gelled material by extruding a small volume using 40 kPa prior to starting the print. To create constructs of the appropriate thicknesses, prints in 8-well plates were extruded at 15 kPa while prints in 96-well plates were extruded at 12-15 kPa. […] After printing, the constructs were incubated at 37° C. for at least 30 minutes to solidify the matrix and 100 μL of MammoCult™ medium was then added.
(§4) The HSLCI platform was installed inside a standard cell culture incubator. For all growth kinetics studies and drug screening, organoids were imaged in 96-well glass-bottom plates (Cellvis P96-1.5H-N) using a 40× objective (Nikon, NA 0.75). Organoids were seeded as single-cell suspensions in a 3:4 mixture of MammoCult™ and Matrigel® as described above and were grown at 37° C. and 5% CO2 in MammoCult™ medium supplemented with 1% antibiotic-antimycotic (Gibco 15240-062).

[2] = system: BT-474 organoids; assay: as above; assay type: cell-based; conditions: for Organoid Behavior (%) Gained Mass: mass increase >10%; for Organoid Behavior (%) Lost Mass: mass loss >10%; for Organoid Behavior (%) Stable: mass change <10%
From the text: as §1, §2, §3, §4

Compound: CN[C@@H]1C[C@H]2O[C@@](C)([C@@H]1OC)n1c3ccccc3c3c4c(c5c6ccccc6n2c5c31)C(=O)NC4 [Staurosporine, staurosporine]
- Mean mass of MCF-7 organoids, Mean mass ± SD ([1]; 1 μM): 1.33 ± 1.07 ng
- Mean mass of MCF-7 organoids, Mean mass ± SD ([1]; 1 μM, listed as staurosporine): 1.33 ± 1.08 ng
- Mean mass of MCF-7 organoids, Mean mass ± SD ([1]; 10 μM): 1.26 ± 0.78 ng
- Mean mass of MCF-7 organoids, Mean mass ± SD ([1]; 10 μM, listed as staurosporine): 1.26 ± 0.80 ng
- Organoid Behavior (%) Stable ([1]; 0.1 μM, 12 h): 76.5%
- Organoid Behavior (%) Gained Mass ([1]; 0.1 μM, 12 h): 8.8%
- Organoid Behavior (%) Lost Mass ([1]; 0.1 μM, 12 h): 14.7%
- Organoid Behavior (%) Stable ([1]; 0.1 μM, 24 h): 60.5%
- Organoid Behavior (%) Lost Mass ([1]; 0.1 μM, 24 h): 23.3%
- Organoid Behavior (%) Stable ([1]; 0.1 μM, 48 h): 38.2%
- Organoid Behavior (%) Gained Mass ([1]; 0.1 μM, 48 h): 29.4%
- Organoid Behavior (%) Lost Mass ([1]; 0.1 μM, 48 h): 32.4%
- Organoid Behavior (%) Stable ([1]; 1 μM, 12 h): 82.1%
- Organoid Behavior (%) Gained Mass ([1]; 1 μM, 12 h): 7.1%
- Organoid Behavior (%) Lost Mass ([1]; 1 μM, 12 h): 10.7%
- Organoid Behavior (%) Stable ([1]; 1 μM, 24 h): 71.4%
- Organoid Behavior (%) Gained Mass ([1]; 1 μM, 24 h): 3.6%
- Organoid Behavior (%) Lost Mass ([1]; 1 μM, 24 h): 25.0%
- Organoid Behavior (%) Stable ([1]; 1 μM, 48 h): 73.3%
- Organoid Behavior (%) Lost Mass ([1]; 1 μM, 48 h): 26.7%
- Organoid Behavior (%) Stable ([1]; 10 μM, 12 h): 79.6%
- Organoid Behavior (%) Gained Mass ([1]; 10 μM, 12 h): 2.0%
- Organoid Behavior (%) Lost Mass ([1]; 10 μM, 12 h): 18.4%
- Organoid Behavior (%) Stable ([1]; 10 μM, 24 h): 51.4%
- Organoid Behavior (%) Gained Mass ([1]; 10 μM, 24 h): 0.0%
- Organoid Behavior (%) Lost Mass ([1]; 10 μM, 24 h): 48.6%
- Organoid Behavior (%) Stable ([1]; 10 μM, 48 h): 32.1%
- Organoid Behavior (%) Gained Mass ([1]; 10 μM, 48 h): 3.6%
- Organoid Behavior (%) Lost Mass ([1]; 10 μM, 48 h): 64.3%
- Mean mass of BT-474 organoids, Mean mass ± SD ([2]; 1 μM, 6 hours of treatment): 1.38 ± 0.49 ng
- Mean mass of BT-474 organoids, Mean mass ± SD ([2]; 1 μM, 48 hours of treatment): 0.70 ± 0.26 ng
- Mean mass of BT-474 organoids, Mean mass ± SD ([2]; 1 μM, 48 hours of treatment, listed as staurosporine): 0.70 ± 0.26 ng
- Mean mass of BT-474 organoids, Mean mass ± SD ([2]; 10 μM, 6 hours of treatment): 1.46 ± 0.72 ng
- Mean mass of BT-474 organoids, Mean mass ± SD ([2]; 10 μM, 48 hours of treatment): 0.83 ± 0.72 ng
- Mean mass of BT-474 organoids, Mean mass ± SD ([2]; 10 μM, 48 hours of treatment, listed as staurosporine): 0.83 ± 0.72 ng
- Organoid Behavior (%) Gained Mass ([2]; BT-474 organoids, 0.1 μM, 12 h): 27.6%
- Organoid Behavior (%) Lost Mass ([2]; BT-474 organoids, 0.1 μM, 12 h): 1.7%
- Organoid Behavior (%) Stable ([2]; BT-474 organoids, 0.1 μM, 24 h): 50.0%
- Organoid Behavior (%) Gained Mass ([2]; BT-474 organoids, 0.1 μM, 24 h): 45.8%
- Organoid Behavior (%) Lost Mass ([2]; BT-474 organoids, 0.1 μM, 24 h): 4.2%
- Organoid Behavior (%) Stable ([2]; BT-474 organoids, 0.1 μM, 48 h): 23.4%
- Organoid Behavior (%) Gained Mass ([2]; BT-474 organoids, 0.1 μM, 48 h): 70.1%
- Organoid Behavior (%) Lost Mass ([2]; BT-474 organoids, 0.1 μM, 48 h): 6.5%
- Organoid Behavior (%) Stable ([2]; BT-474 organoids, 1 μM, 12 h): 47.6%
- Organoid Behavior (%) Gained Mass ([2]; BT-474 organoids, 1 μM, 12 h): 19.0%
- Organoid Behavior (%) Gained Mass ([2]; BT-474 organoids, 1 μM, 12 h, listed as staurosporine): 19%
- Organoid Behavior (%) Stable ([2]; BT-474 organoids, 1 μM, 24 h): 29.5%
- Organoid Behavior (%) Gained Mass ([2]; BT-474 organoids, 1 μM, 24 h): 13.6%
- Organoid Behavior (%) Lost Mass ([2]; BT-474 organoids, 1 μM, 24 h): 56.8%
- Organoid Behavior (%) Stable ([2]; BT-474 organoids, 1 μM, 48 h): 12.0%
- Organoid Behavior (%) Gained Mass ([2]; BT-474 organoids, 1 μM, 48 h): 4.0%
- Organoid Behavior (%) Lost Mass ([2]; BT-474 organoids, 1 μM, 48 h): 84.0%
- reduction in the number of organoids that increased in size ([2]; BT-474 organoids, 1 μM, after 12 hours, compared to the control): 60%
- Organoid Behavior (%) Stable ([2]; BT-474 organoids, 10 μM, 12 h): 64.3%
- Organoid Behavior (%) Gained Mass ([2]; BT-474 organoids, 10 μM, 12 h): 7.1%
- Organoid Behavior (%) Lost Mass ([2]; BT-474 organoids, 10 μM, 12 h): 28.6%
- Organoid Behavior (%) Stable ([2]; BT-474 organoids, 10 μM, 24 h): 23.9%
- Organoid Behavior (%) Gained Mass ([2]; BT-474 organoids, 10 μM, 24 h): 19.6%
- Organoid Behavior (%) Lost Mass ([2]; BT-474 organoids, 10 μM, 24 h): 56.5%
- Organoid Behavior (%) Gained Mass ([2]; BT-474 organoids, 10 μM, 48 h): 14.8%
- Organoid Behavior (%) Lost Mass ([2]; BT-474 organoids, 10 μM, 48 h): 66.7%
